Experimental findings from patent US7405307B2, “Biphenylcarboxamides useful as lipid lowering agents” (Janssen Pharmaceutica N.V., priority 2000, dated 2008) are described below.

What is called melting point is the temperature, or range, at which the solid turns liquid. As a reminder, the IC50 is the concentration at which inhibition is half-maximal.

Tested on in one data set: not given
Assay: not given
Conditions: not given
Take `COC(=O)C(NC/C=C/c1ccc(NC(=O)c2ccccc2-c2ccc(C(F)(F)F)cc2)cc1)c1ccccc1` (stereo not shown) [Compound 137]: the melting point was found to be 142 °C.

The test system of a further data set is ApoB secretion, HepG2 cells. Kind of data set: Quantification of the secretion of ApoB. The settings on record: Homo sapiens, 24 hours of incubation with test compound, apoB immunoprecipitation, read-out: pIC50 values (= −log IC50 value) (converted). In kind it is cell-based. On the procedure:
C. Pharmacological Examples C.1. Quantification of the Secretion of ApoB.
HepG2 cells were cultured in 24-well plates in MEM Rega 3 containing 10% fetal calf serum. At 70% confluency, the medium was changed and the test compound or carrier (DMSO, 0.4% final concentration) was added. After 24 hours of incubation, the medium was transferred to Eppendorf tubes and cleared by centrifugation. A sheep antibody directed against either apoB was added to the supernatant and the mixture was kept at 8° C. for 24 hours. Then, rabbit anti-sheep antibody was added and the immune complex was allowed to precipitate for 24 hours at 8° C. The immunoprecipitate was pelleted by centrifugation for 25 minutes at 1320 g and washed twice with a buffer containing 40 mM Mops, 40 mM NaH2PO4, 100 mM NaF, 0.2 mM DTT, 5 mM EDTA, 5 mM EGTA, 1% Triton-X-100, 0.5% sodium deoxycholate (DOC), 0.1% SDS, 0.2 μM leupeptin and 0.2 μM PMSF. Radioactivity in the pellet was quantified by liquid scintillation counting.
Resulting IC50 values are enumerated in Table C.1
With `COC(=O)C(NCCNc1ccc(NC(=O)c2ccccc2-c2ccc(C(F)(F)F)cc2)cc1)c1ccccc1` (stereo not shown) [Compound 1], the IC50 is 71 nM.
Turning to `COC(=O)C(NCCCNc1ccc(NC(=O)c2ccccc2-c2ccc(C(F)(F)F)cc2)cc1)c1ccccc1` (stereo not shown) [Compound 2], the IC50 was 317 nM.
Same read-out and setting: the same measure for `COC(=O)C(c1ccccc1)N(C)CCCN(C)c1ccc(NC(=O)c2ccccc2-c2ccc(C(F)(F)F)cc2)cc1` (stereo not shown) [Compound 3]: 766 nM.
Same read-out and setting: the same measure for `COC(=O)C(c1ccccc1)N(C)CCN(C)c1ccc(NC(=O)c2ccccc2-c2ccc(C(F)(F)F)cc2)cc1` (stereo not shown) [Compound 4]: 98.4 nM; for `COC(=O)C(NCC(C)(C)CNc1ccc(NC(=O)c2ccccc2-c2ccc(C(F)(F)F)cc2)cc1)c1ccccc1` (stereo not shown) [Compound 5]: 1020 nM; for `COC(=O)C(NC1CCC(Nc2ccc(NC(=O)c3ccccc3-c3ccc(C(F)(F)F)cc3)cc2)CC1)c1ccccc1` (stereo not shown) [Compound 6]: 2070 nM.
Same read-out and setting: the same measure for `CCOC(=O)C(NCCNc1ccc(NC(=O)c2ccccc2-c2ccc(C(F)(F)F)cc2)cc1)c1ccccc1` (stereo not shown) [Compound 7]: 330 nM.
As for `CCOC(=O)C(NCCCNc1ccc(NC(=O)c2ccccc2-c2ccc(C(F)(F)F)cc2)cc1)c1ccccc1` (stereo not shown) [Compound 8], the IC50 is 129 nM.
On the same count and under the same terms, the same measure for `CCOC(=O)C(c1ccccc1)N(C)CCN(C)c1ccc(NC(=O)c2ccccc2-c2ccc(C(F)(F)F)cc2)cc1` (stereo not shown) [Compound 9]: 566 nM; for `CCOC(=O)C(NCC(C)(C)CNc1ccc(NC(=O)c2ccccc2-c2ccc(C(F)(F)F)cc2)cc1)c1ccccc1` (stereo not shown) [Compound 10]: 948 nM; for `CCOC(=O)C(NC1CCC(Nc2ccc(NC(=O)c3ccccc3-c3ccc(C(F)(F)F)cc3)cc2)CC1)c1ccccc1` (stereo not shown) [Compound 11]: 1370 nM.
On the same count and under the same terms, as for `CCCOC(=O)C(NCCNc1ccc(NC(=O)c2ccccc2-c2ccc(C(F)(F)F)cc2)cc1)c1ccccc1` (stereo not shown) [Compound 12], the figure is 689 nM.
The same measure, in the same setting: as for `CCCOC(=O)C(NCCCNc1ccc(NC(=O)c2ccccc2-c2ccc(C(F)(F)F)cc2)cc1)c1ccccc1` (stereo not shown) [Compound 13], the figure is 488 nM.
On to `CCCOC(=O)C(c1ccccc1)N(C)CCCN(C)c1ccc(NC(=O)c2ccccc2-c2ccc(C(F)(F)F)cc2)cc1` (stereo not shown) [Compound 14], for which the IC50 was 938 nM.
On the same count and under the same terms, the same measure for `CCCOC(=O)C(c1ccccc1)N(C)CCN(C)c1ccc(NC(=O)c2ccccc2-c2ccc(C(F)(F)F)cc2)cc1` (stereo not shown) [Compound 15]: 757 nM; for `CCCOC(=O)C(NCC(C)(C)CNc1ccc(NC(=O)c2ccccc2-c2ccc(C(F)(F)F)cc2)cc1)c1ccccc1` (stereo not shown) [Compound 16]: 1260 nM; for `CCCOC(=O)C(NC1CCC(Nc2ccc(NC(=O)c3ccccc3-c3ccc(C(F)(F)F)cc3)cc2)CC1)c1ccccc1` (stereo not shown) [Compound 17]: 809 nM.
Still for that read-out and setting: the same measure for `CCNC(=O)C(NCCNc1ccc(NC(=O)c2ccccc2-c2ccc(C(F)(F)F)cc2)cc1)c1ccccc1` (stereo not shown) [Compound 18]: below 30 nM.
On the same count and under the same terms, the same measure for `CCNC(=O)C(NCCCNc1ccc(NC(=O)c2ccccc2-c2ccc(C(F)(F)F)cc2)cc1)c1ccccc1` (stereo not shown) [Compound 19]: 229 nM; for `CCNC(=O)C(c1ccccc1)N(C)CCCN(C)c1ccc(NC(=O)c2ccccc2-c2ccc(C(F)(F)F)cc2)cc1` (stereo not shown) [Compound 20]: 1930 nM.
On to `CCNC(=O)C(c1ccccc1)N(C)CCN(C)c1ccc(NC(=O)c2ccccc2-c2ccc(C(F)(F)F)cc2)cc1` (stereo not shown) [Compound 21], for which the IC50 is 506 nM.
Still for that read-out and setting: the same measure for `CCNC(=O)C(NCC(C)(C)CNc1ccc(NC(=O)c2ccccc2-c2ccc(C(F)(F)F)cc2)cc1)c1ccccc1` (stereo not shown) [Compound 22]: 1030 nM; for `CCNC(=O)C(NC1CCC(Nc2ccc(NC(=O)c3ccccc3-c3ccc(C(F)(F)F)cc3)cc2)CC1)c1ccccc1` (stereo not shown) [Compound 23]: 1570 nM.
The same measure, in the same setting: as for `CCCNC(=O)C(NCCNc1ccc(NC(=O)c2ccccc2-c2ccc(C(F)(F)F)cc2)cc1)c1ccccc1` (stereo not shown) [Compound 24], the figure is 171 nM; as for `CCCNC(=O)C(NCCCNc1ccc(NC(=O)c2ccccc2-c2ccc(C(F)(F)F)cc2)cc1)c1ccccc1` (stereo not shown) [Compound 25], 948 nM.
The same measure, in the same setting: as for `CCCNC(=O)C(c1ccccc1)N(C)CCCN(C)c1ccc(NC(=O)c2ccccc2-c2ccc(C(F)(F)F)cc2)cc1` (stereo not shown) [Compound 26], the figure is 1970 nM; as for `CCCNC(=O)C(c1ccccc1)N(C)CCN(C)c1ccc(NC(=O)c2ccccc2-c2ccc(C(F)(F)F)cc2)cc1` (stereo not shown) [Compound 27], 625 nM; as for `CCCNC(=O)C(NCC(C)(C)CNc1ccc(NC(=O)c2ccccc2-c2ccc(C(F)(F)F)cc2)cc1)c1ccccc1` (stereo not shown) [Compound 28], 1490 nM.
For the compound `CCCNC(=O)C(NC1CCC(Nc2ccc(NC(=O)c3ccccc3-c3ccc(C(F)(F)F)cc3)cc2)CC1)c1ccccc1` (stereo not shown) [Compound 29], the IC50 was 753 nM.
For `COC(=O)C(NC1CCN(c2ccc(NC(=O)c3ccccc3-c3ccc(C(F)(F)F)cc3)cc2)CC1)c1ccccc1` (stereo not shown) [Compound 98], the IC50 is 1580 nM.
Turning to `COC(=O)C(c1ccccc1)N(C)C1CCN(c2ccc(NC(=O)c3ccccc3-c3ccc(C(F)(F)F)cc3)cc2)C1` (stereo not shown) [Compound 100], the IC50 is 41.7 nM.
Consider `COC(=O)C(NC1CCN(c2ccc(NC(=O)c3ccccc3-c3ccc(C(F)(F)F)cc3)cc2)C1)c1ccccc1` (stereo not shown) [Compound 101], for which the IC50 was 40.9 nM.
Still for that read-out and setting: the same measure for `CCOC(=O)C(c1ccccc1)N1CCC(Nc2ccc(NC(=O)c3ccccc3-c3ccc(C(F)(F)F)cc3)cc2)CC1` (stereo not shown) [Compound 102]: above 3000 nM.
With `CCOC(=O)C(NC1CCN(c2ccc(NC(=O)c3ccccc3-c3ccc(C(F)(F)F)cc3)cc2)CC1)c1ccccc1` (stereo not shown) [Compound 103], the IC50 is 1600 nM.
On the same count and under the same terms, as for `CCOC(=O)C(c1ccccc1)N(C)C1CCN(c2ccc(NC(=O)c3ccccc3-c3ccc(C(F)(F)F)cc3)cc2)C1` (stereo not shown) [Compound 104], the figure is below 30 nM; as for `CCOC(=O)C(NC1CCN(c2ccc(NC(=O)c3ccccc3-c3ccc(C(F)(F)F)cc3)cc2)C1)c1ccccc1` (stereo not shown) [Compound 105], 183 nM; as for `CCCOC(=O)C(c1ccccc1)N1CCC(Nc2ccc(NC(=O)c3ccccc3-c3ccc(C(F)(F)F)cc3)cc2)CC1` (stereo not shown) [Compound 106], 3000 nM.
Take `CCCOC(=O)C(NC1CCN(c2ccc(NC(=O)c3ccccc3-c3ccc(C(F)(F)F)cc3)cc2)CC1)c1ccccc1` (stereo not shown) [Compound 107]: the IC50 was 1570 nM.
The same measure, in the same setting: as for `CCCOC(=O)C(c1ccccc1)N(C)C1CCN(c2ccc(NC(=O)c3ccccc3-c3ccc(C(F)(F)F)cc3)cc2)C1` (stereo not shown) [Compound 108], the figure is 69 nM; as for `CCCOC(=O)C(NC1CCN(c2ccc(NC(=O)c3ccccc3-c3ccc(C(F)(F)F)cc3)cc2)C1)c1ccccc1` (stereo not shown) [Compound 109], 150 nM.
Same read-out and setting: as for `CCNC(=O)C(c1ccccc1)N1CCC(Nc2ccc(NC(=O)c3ccccc3-c3ccc(C(F)(F)F)cc3)cc2)CC1` (stereo not shown) [Compound 110], the figure is 1170 nM.
On the same count and under the same terms, the same measure for `CCNC(=O)C(NC1CCN(c2ccc(NC(=O)c3ccccc3-c3ccc(C(F)(F)F)cc3)cc2)CC1)c1ccccc1` (stereo not shown) [Compound 111]: 348 nM; for `CCNC(=O)C(c1ccccc1)N(C)C1CCN(c2ccc(NC(=O)c3ccccc3-c3ccc(C(F)(F)F)cc3)cc2)C1` (stereo not shown) [Compound 112]: 39.4 nM; for `CCNC(=O)C(NC1CCN(c2ccc(NC(=O)c3ccccc3-c3ccc(C(F)(F)F)cc3)cc2)C1)c1ccccc1` (stereo not shown) [Compound 113]: 10.7 nM.
As to `CCCNC(=O)C(c1ccccc1)N1CCC(Nc2ccc(NC(=O)c3ccccc3-c3ccc(C(F)(F)F)cc3)cc2)CC1` (stereo not shown) [Compound 114], the IC50 was 2610 nM.
Same read-out and setting: the same measure for `CCCNC(=O)C(NC1CCN(c2ccc(NC(=O)c3ccccc3-c3ccc(C(F)(F)F)cc3)cc2)CC1)c1ccccc1` (stereo not shown) [Compound 115]: 948 nM; for `CCCNC(=O)C(c1ccccc1)N(C)C1CCN(c2ccc(NC(=O)c3ccccc3-c3ccc(C(F)(F)F)cc3)cc2)C1` (stereo not shown) [Compound 116]: 94.8 nM.
On the same count and under the same terms, the same measure for `CCCNC(=O)C(NC1CCN(c2ccc(NC(=O)c3ccccc3-c3ccc(C(F)(F)F)cc3)cc2)C1)c1ccccc1` (stereo not shown) [Compound 117]: below 30 nM.
